{"source": "patent US8551984B2", "about": "“Aminopyrimidines as SYK inhibitors” (Merck Sharp & Dohme Corp., priority 2009, dated 2013)", "target": "recombinant human SYK (GST-hSYK fusion protein) (Homo sapiens, UniProt P43405)", "key": {"[1]": {"settings": "read-out: rhSYK Activity, Table 33B"}, "[2]": {"settings": "read-out: rhSYK Activity, Table 33C"}, "[3]": {"settings": "read-out: rhSYK Activity, Table 54D"}, "[4]": {"settings": "read-out: rhSYK Activity (IC50), recombinant human GST-SYK 5 pM, ATP 25 μM, biotinylated substrate peptide 250 nM, HTRF, 10-dose titration"}, "[5]": {"settings": "read-out: rhSYK Activity, Table 108A"}, "[6]": {"settings": "read-out: rhSYK Activity, Table 113A"}}, "note": "Like-named read-outs stand apart in the source and are kept apart here.", "description": "Homogeneous Time-Resolved Fluorescence (HTRF) Assay for the Recombinant Human SYK Enzyme:", "data": [{"compound": "Cc1cc(Nc2nccc(C(F)(F)F)n2)cc(-c2cnc(C3(O)CCCC(C(=O)O)C(C)(C)C3)s2)c1", "note": "(stereo not drawn) [Example 33B-10]", "values": [{"measurement": "IC50", "setting": "[1]", "result": "< 100", "unit": "nM"}]}, {"compound": "Cc1cc(Nc2nccc(C(F)(F)F)n2)cc(-c2cnc(C3(O)CCCC(C(=O)O)C(C)(C)C3)s2)c1", "note": "(stereo not drawn) [Example 33B-12]", "values": [{"measurement": "IC50", "setting": "[1]", "result": "< 100", "unit": "nM"}]}, {"compound": "Cc1cc(Nc2nccc(C)n2)cc(-c2cnc(C3(O)CCC(C(=O)O)C(C)C3)s2)c1", "note": "(stereo not drawn) [Example 33B-32]", "values": [{"measurement": "IC50", "setting": "[1]", "result": "< 100", "unit": "nM"}]}, {"compound": "Cc1cc(Nc2nccc(C)n2)cc(-c2cnc(C3(O)CCC(C(=O)O)C(C(C)C)C3)s2)c1", "note": "(stereo not drawn) [Example 33B-34]", "values": [{"measurement": "IC50", "setting": "[1]", "result": "< 100", "unit": "nM"}]}, {"compound": "Cc1cc(Nc2nccc(C)n2)cc(-c2cnc(C3(O)CCC(C(=O)O)C(C(C)C)C3)s2)c1", "note": "(stereo not drawn) [Example 33B-36]", "values": [{"measurement": "IC50", "setting": "[1]", "result": "< 100", "unit": "nM"}]}, {"compound": "Cc1cc(Nc2nccc(C(F)(F)F)n2)cc(-c2cnc(C3(O)C[C@@H]4C(C(=O)O)[C@@H]4C3)s2)c1", "note": "(stereo partly drawn) [Example 33C-10]", "values": [{"measurement": "IC50", "setting": "[2]", "result": "< 100", "unit": "nM"}]}, {"compound": "CCOC(=O)C1[C@H]2CC(O)(c3ncc(-c4cc(C)cc(Nc5nccc(C(F)(F)F)n5)c4)s3)C[C@@H]12", "note": "(stereo partly drawn) [Example 33C-12]", "values": [{"measurement": "IC50", "setting": "[2]", "result": "< 100", "unit": "nM"}]}, {"compound": "Cc1cc(Nc2nccc(C)n2)cc(-c2cnc(C3(O)CC4CCC3CC4C(=O)O)s2)c1", "note": "(stereo not drawn) [Example 33C-19]", "values": [{"measurement": "IC50", "setting": "[2]", "result": "< 100", "unit": "nM"}]}, {"compound": "COC(=O)C1CCC(c2ncc(-c3cccc(Nc4nccc(C(F)(F)F)n4)c3)s2)CC1", "note": "(stereo not drawn) [Example 36A-5]", "values": [{"measurement": "IC50", "setting": "read-out: rhSYK Activity, Table 36A", "result": "100 to 1000", "unit": "nM"}]}, {"compound": "Cc1cc(Nc2nccc(C(C)C)n2)cc(-c2cnc(C3(O)CCCN(C(=O)C(C)O)CC3)s2)c1", "note": "(stereo not drawn) [Example 54D-3]", "values": [{"measurement": "IC50", "setting": "[3]", "result": "< 100", "unit": "nM"}]}, {"compound": "Cc1cc(Nc2nccc(C(F)(F)F)n2)cc(-c2cnc(C3(O)CCCN(C(=O)c4cnn[nH]4)CC3)s2)c1", "note": "(stereo not drawn) [Example 54D-35]", "values": [{"measurement": "IC50", "setting": "[3]", "result": "< 100", "unit": "nM"}]}, {"compound": "Cc1cc(Nc2nccc(C(F)(F)F)n2)cc(-c2cnc(C3(O)CCCN(C(=O)c4n[nH]c(=O)[nH]4)CC3)s2)c1", "note": "(stereo not drawn) [Example 54D-63]", "values": [{"measurement": "IC50", "setting": "[3]", "result": "< 100", "unit": "nM"}]}, {"compound": "Cc1cc(Nc2nccc(C(F)(F)F)n2)cc(-c2cnc(C3(O)CCCN(C(=O)CC4CCOC4)CC3)s2)c1", "note": "(stereo not drawn) [Example 54D-69]", "values": [{"measurement": "IC50", "setting": "[3]", "result": "< 100", "unit": "nM"}]}, {"compound": "Cc1cc(Nc2nccc(C(F)(F)F)n2)cc(-c2cnc(C3(O)CCCN(C(=O)Cc4n[nH]c(=O)[nH]4)CC3)s2)c1", "note": "(stereo not drawn) [Example 54D-94]", "values": [{"measurement": "IC50", "setting": "[3]", "result": "< 100", "unit": "nM"}]}, {"compound": "Cc1cc(Nc2nccc(C(F)(F)F)n2)cc(-c2cnc(C3(O)CCC(NC(=O)CC4CCCO4)CC3)s2)c1", "note": "(stereo not drawn) [Example 54E-19]", "values": [{"measurement": "IC50", "setting": "read-out: rhSYK Activity, Table 54E", "result": "< 100", "unit": "nM"}]}, {"compound": "Cc1cc(Nc2nccc(C(F)(F)F)n2)cc(-c2cnc(C(=O)NCC(O)CO)s2)c1", "note": "(stereo not drawn) [Example 87A-3]", "values": [{"measurement": "IC50", "setting": "[4]", "result": "< 100", "unit": "nM"}]}, {"compound": "Cc1cc(Nc2nccc(C(F)(F)F)n2)cc(-c2cnc(C(=O)NC[C@@H](O)CO)s2)c1", "note": "[Example 87A-4]", "values": [{"measurement": "IC50", "setting": "[4]", "result": "< 100", "unit": "nM"}]}, {"compound": "COC(=O)[C@H]1C[C@@H](O)CN1C(=O)c1ncc(-c2cc(C)cc(Nc3nccc(C(F)(F)F)n3)c2)s1", "note": "[Example 87B-23]", "values": [{"measurement": "IC50", "setting": "[4]", "result": "< 100", "unit": "nM"}]}, {"compound": "Cc1cc(Nc2nccc(C(F)(F)F)n2)cc(-c2cnc(C(=O)N3CC(O)CC3C(=O)O)s2)c1", "note": "(stereo not drawn) [Example 87B-24]", "values": [{"measurement": "IC50", "setting": "[4]", "result": "< 100", "unit": "nM"}]}, {"compound": "Cc1cc(Nc2nccc(OC3CNC3)n2)cc(-c2cnc(C3(O)CCC3)s2)c1", "note": "[Example 94A-28]", "values": [{"measurement": "IC50", "setting": "[4]", "result": "< 100", "unit": "nM"}]}, {"compound": "Cc1cc(Nc2nccc(OC3CCNCC3F)n2)cc(-c2cnc(C(C)(O)C(F)(F)F)s2)c1", "note": "(stereo not drawn) [Example 94B-7]", "values": [{"measurement": "IC50", "setting": "[4]", "result": "< 100", "unit": "nM"}]}, {"compound": "Cc1cc(Nc2nccc(O[C@@H]3CCNC3)n2)cc(-c2cnc(C(C)(O)C(F)(F)F)s2)c1", "note": "(stereo partly drawn) [Example 94B-8]", "values": [{"measurement": "IC50", "setting": "[4]", "result": "< 100", "unit": "nM"}]}, {"compound": "Cc1cc(Nc2nc(C)cc(C)n2)cc(-c2cnc(C3(O)CCC(C(=O)O)C(C)(C)C3)s2)c1", "note": "(stereo not drawn) [Example 100A-10]", "values": [{"measurement": "IC50", "setting": "[4]", "result": "100 to 1000", "unit": "nM"}]}, {"compound": "Cc1cc(Nc2nccc(OC3CCCNCC3)n2)cc(-c2cnc(C3(O)CCC3)s2)c1", "note": "(stereo not drawn) [Example 108A-10]", "values": [{"measurement": "IC50", "setting": "[5]", "result": "< 100", "unit": "nM"}]}, {"compound": "Cc1cc(Nc2nccc(OC3CCCNCC3)n2)cc(-c2cnc(C3(O)CCC3)s2)c1", "note": "(stereo not drawn) [Example 108A-11]", "values": [{"measurement": "IC50", "setting": "[5]", "result": "< 100", "unit": "nM"}]}, {"compound": "Cc1cc(Nc2nccc(C)n2)cc(-c2cnc(C3(O)CCC(C(=O)O)C(C)C3)s2)c1", "note": "(stereo not drawn) [Example 113A-5]", "values": [{"measurement": "IC50", "setting": "[6]", "result": "< 100", "unit": "nM"}]}, {"compound": "Cc1cc(Nc2nccc(C)n2)cc(-c2cnc(C3(O)CCC(C(=O)O)C(C)C3)s2)c1", "note": "(stereo not drawn) [Example 113A-6]", "values": [{"measurement": "IC50", "setting": "[6]", "result": "< 100", "unit": "nM"}]}, {"compound": "Cc1cc(Nc2nccc(C)n2)cc(-c2cnc(C3(O)CCC(C(=O)O)C(C)C3)s2)c1", "note": "(stereo not drawn) [Example 113A-7]", "values": [{"measurement": "IC50", "setting": "[6]", "result": "< 100", "unit": "nM"}]}, {"compound": "CCc1ccnc(Nc2cc(C)cc(-c3cnc(C4(O)CCC(C(=O)O)C(C)C4)s3)c2)n1", "note": "(stereo not drawn) [Example 113A-15]", "values": [{"measurement": "IC50", "setting": "[6]", "result": "< 100", "unit": "nM"}]}, {"compound": "Cc1ccnc(Nc2cc(-c3cnc(C4(O)CCC(C(=O)O)C(C)C4)s3)cc(C3CC3)c2)n1", "note": "(stereo not drawn) [Example 113A-24]", "values": [{"measurement": "IC50", "setting": "[6]", "result": "< 100", "unit": "nM"}]}, {"compound": "CCOC(=O)C1CCC(O)(c2ncc(-c3cc(C)cc(Nc4nccc(CC)n4)c3)s2)CC1C", "note": "(stereo not drawn) [Example 113A-32]", "values": [{"measurement": "IC50", "setting": "[6]", "result": "< 100", "unit": "nM"}]}, {"compound": "COCCOc1ccnc(Nc2cc(C)cc(-c3cnc(C4(O)CCC(C(=O)O)C(C)C4)s3)c2)n1", "note": "(stereo not drawn) [Example 113A-39]", "values": [{"measurement": "IC50", "setting": "[6]", "result": "< 100", "unit": "nM"}]}, {"compound": "COCCCOc1ccnc(Nc2cc(C)cc(-c3cnc(C4(O)CCC(C(=O)O)C(C)C4)s3)c2)n1", "note": "(stereo not drawn) [Example 113A-41]", "values": [{"measurement": "IC50", "setting": "[6]", "result": "< 100", "unit": "nM"}]}]}
